These compounds were tested on production of tumor necrosis factor (TNF) by monocytes activated with bacterial lipopolysaccharide (LPS) (assay: Lipopolysaccharide-activated Monocyte TNF Production Assay). Conditions: Homo sapiens, TNF in culture supernatants by ELISA, read-out: IC50 (concentration of test compounds causing a 50% reduction in TNF production).
Format: cell-based
Method: Lipopolysaccharide-activated Monocyte TNF Production Assay
Test compounds were evaluated in vitro for the ability to inhibit the production of tumor necrosis factor (TNF) by monocytes activated with bacterial lipopolysaccharide (LPS). Fresh residual source leukocytes (a byproduct of plateletpheresis) were obtained from the local blood bank and peripheral blood mononuclear cells (PBMCs) were isolated by density gradient centrifugation on Ficol-Paque Plus (Pharmacia). PBMCs were suspended at 2×10^6/ml in DMEM supplemented to contain 2% FCS (10 mM), 0.3 mg/ml glutamate, 100 U/ml penicillin G and […] streptomycin sulfate (complete media). Cells were plated into Falcon flatbottom 96 well culture plates (200 μl/well) and cultured overnight at 37° C. and 6% CO2. Nonadherent cells were removed by washing with 200 μl/well of fresh medium. Wells containing adherent cells (˜70% monocytes) were replenished with 100 μl of fresh medium.
Preparation of Test Compound Stock Solutions
Test compounds were dissolved in […]. Compound stock solutions were prepared to an initial concentration of […]. Stocks were diluted initially to 20-200 μM in complete media. Nine two-fold serial dilutions of each compound were then prepared in complete medium.
Treatment of Cells with Test Compounds and Activation of TNF Production with Lipopolysaccharide
One hundred microliters of each test compound dilution were added to microtiter wells containing adherent monocytes and 100 μl complete medium. Monocytes were cultured with test compounds for 60 min at which time 25 μl of complete medium containing 30 ng/ml lipopolysaccharide from E. coli K532 were added to each well. Cells were cultured an additional 4 hrs. Culture supernatants were then removed and TNF present in the supernatants was quantified using an ELISA.
Flat bottom 96 well Coming High Binding ELISA plates were coated overnight (4° C.) with 150 μL/well of 3 μg/ml murine anti-human TNFa MAb (R&D Systems #MAB210). Wells were then blocked 1 h at room temperature with 200 μL/well of CaCl2-free ELISA buffer supplemented to contain 20 mg/ml BSA (standard ELISA buffer: […], 150 mM NaCl, 2 mM CaCl2, 0.15 mM thimerosal, pH 7.4). Plates were washed and replenished with 100 μl of test supernatants (diluted 1:3) or standards. Standards consisted of eleven 1.5-fold serial dilutions from a stock of 1 ng/ml recombinant human TNF (R&D Systems). Plates were incubated at room temperature for 1 h on orbital shaker (300 rpm), washed and replenished with 100 μl/well of 0.5 jig/ml goat anti-human TNFa (R&D systems #AB-210-NA) biotinylated at a 4:1 ratio. Plates were incubate for 40 min, washed and replenished with 100 μl/well of alkaline phosphatase-conjugated streptavidin (Jackson ImmunoResearch #016-050-084) at 0.02 μg/ml. Plates were incubated 30 min, washed and replenished with 200 μl well of 1 mg/ml of p-nitrophenyl phosphate. After 30 min, plates were read at 405 nm on a Vmax plate reader.
Standard curve data were fit to a second order polynomial and unknown TNF-a concentrations determined from their OD by solving this equation for concentration. TNF concentrations were then plotted Vs test compound concentration using a second order polynomial. This equation was then used to calculate the concentration of test compounds causing a 50% reduction in TNF production.

| SMILES | IC50 [µM] |
| --- | --- |
| N[C@@H](CCc1ccccc1)C(=O)Nc1ccc2c(-c3ccncc3)c(-c3ccc(F)cc3)[nH]c2n1 [Compound 139, 6-(4′-phenyl-1′-oxo-2′-(L)-aminobutylamino)-3-(4-pyridyl)-2-(4-fluorophenyl)-7-aza-indole] | < 20 |
| N[C@H](CCc1ccccc1)C(=O)Nc1ccc2c(-c3ccncc3)c(-c3ccc(F)cc3)[nH]c2n1 [Compound 141, 6-(4′-phenyl-1′-oxo-2′-(D)-aminobutylamino)-3-(4-pyridyl)-2-(4-fluorophenyl)-7-aza-indole] | < 20 |
| CC(C)COC(=O)n1c(-c2ccc(F)cc2)c(-c2ccncc2)c2ccc(NC(=O)CN)nc21 [Compound 143, 6-(2′-amino-1′-oxo-ethylamino)-3-(4-pyridyl)-2-(4-fluorophenyl)-1-isobutoxycarbonyl-7-aza-indole] | < 20 |
| CC(C)(C)CNc1ccc2c(-c3ccncc3)c(-c3ccc(F)cc3)[nH]c2n1 [Compound 151, 6-(2′,2′-dimethylpropylamino)-3-(4-pyridyl)-2-(4-fluorophenyl)-7-aza-indole] | < 20 |
| CC(C)CCNc1ccc2c(-c3ccncc3)c(-c3ccc(F)cc3)[nH]c2n1 [Compound 152, 6-(isoamylamino)-3-(4-pyridyl)-2-(4-fluorophenyl)-7-aza-indole] | < 20 |
| CCC(CC)CNc1ccc2c(-c3ccncc3)c(-c3ccc(F)cc3)[nH]c2n1 [Compound 153, 6-(2′-ethylbutylamino)-3-(4-pyridyl)-2-(4-fluorophenyl)-7-aza-indole] | < 20 |
| Fc1ccc(-c2[nH]c3nc(NCc4cccs4)ccc3c2-c2ccncc2)cc1 [Compound 154, 6-(2′-thienylmethylamino)-3-(4-pyridyl)-2-(4-fluorophenyl)-7-aza-indole] | < 20 |
| CCNc1ccc2c(-c3ccncc3)c(-c3ccc(F)cc3)[nH]c2n1 [Compound 156, 6-(ethylamino)-3-(4-pyridyl)-2-(4-fluorophenyl)-7-aza-indole] | < 20 |
| Cn1c(-c2ccc(F)cc2)c(-c2ccncc2)c2ccc(NC(=O)CN)nc21 [Compound 158, 6(2′-amino-1′-oxo-ethylamino)-3-(4-pyridyl)-2-(4-fluorophenyl)-1-methyl-7-aza-indole] | < 20 |

From patent US6605634B2 (Amgen, Inc., priority 1996, dated 2003)
